In patent US20220195384A1, “COMPOSITION FOR PROMOTING PRODUCTION OF STEM CELL-DERIVED EXOSOMES AND INCREASING STEMNESS” (BREXOGEN INC., priority 2019, published 2022):

Key:
[1] = tested on: primary umbilical cord-derived mesenchymal stem cells; experiment: Stem cell proliferation (CCK, absorbance 450 nm) after pretreatment; assay type: cell-based; conditions: 10 ng/mL interferon-γ pretreatment one week; 24 h culture, CCK 4 h
Procedure: (§1) In a culture medium [high glucose DMEM (Gibco, Cat no. 11995-065); 10% fetal bovine serum (HyClone), 1% MEM non-essential amino acids solution (100×) (Gibco, Cat no. 11140-050)] containing 20 nM of exendin-4, primary umbilical cord-derived mesenchymal stem cells (ATCC No. PCS-500-010; Lot No. 63822428) were cultured for one week.
as §1, with “10” for “20”, “PMA,” for “exendin-4,”
as §1, with “10 ng/mL interferon-γ,” for “20 nM of exendin-4,”
as §1, with “10 μM” for “20 nM”, “tetrandrine,” for “exendin-4,”
as §1, with “10 μg/mL hyaluronic acid,” for “20 nM of exendin-4,”
as §1, with “30” for “20”, “substance P,” for “exendin-4,”
as §1, with “10” for “20”, “resveratrol,” for “exendin-4,”
as §1, with “10 μM” for “20 nM”, “lanifibranor,” for “exendin-4,”
(§2) Mesenchymal stem cells and the exendin-4-pretreated mesenchymal stem cells of the Example were each seeded at a density of 3,000 cells/well into 96-well plates containing 100 μL of a culture medium [high glucose DMEM (Gibco, Cat no. 11995-065), 10% fetal bovine serum (HyClone), 1% MEM non-essential amino acids solution (100×) (Gibco, Cat no. 11140-050)] per well and cultured for 24 hours in a CO2 incubator. Then, CCK solution (10 μL/well) was added, and incubation was continued for 4 hours in the CO2 incubator, followed by reading absorbance at a wavelength of 450 nm (420-480 nm) to determine proliferation.
as §2, with “PMA-pretreated” for “exendin-4-pretreated”, “proliferation. […]” for “proliferation.”

[2] = tested on: primary umbilical cord-derived mesenchymal stem cells; experiment: Stem cell stemness: colony formation (CFU-F, crystal violet) after pretreatment; assay type: cell-based; conditions: 10 ng/mL interferon-γ pretreatment one week
Procedure: as §1
as §1, with “10” for “20”, “PMA,” for “exendin-4,”
as §1, with “10 ng/mL interferon-γ,” for “20 nM of exendin-4,”
as §1, with “10 μM” for “20 nM”, “tetrandrine,” for “exendin-4,”
as §1, with “10 μg/mL hyaluronic acid,” for “20 nM of exendin-4,”
as §1, with “30” for “20”, “substance P,” for “exendin-4,”
as §1, with “10” for “20”, “resveratrol,” for “exendin-4,”
as §1, with “10 μM” for “20 nM”, “lanifibranor,” for “exendin-4,”
Mesenchymal stem cells and the exendin-4-pretreated mesenchymal stem cells of the Example were each seeded at a density of 1,000 cells/dish into 100-mm cell culture dishes containing […] of a culture medium [high glucose DMEM (Gibco, Cat no. 11995-065), 10% fetal bovine serum (HyClone), 1% MEM non-essential amino acids solution (100×) (Gibco, Cat no. 11140-050)] per dish and cultured for 21 days. The cell-attached dishes were washed twice with PBS, followed by fixation with 95% methanol at room temperature for about 2 min. The fixed cells were washed three times with PBS and stained with 0.5% crystal violet [(sigma, C-3886, USA) […], methanol 100 ml] for 5 min. After water washing and drying at room temperature, colonies, each composed of 50 or more cells, were counted for comparison.
Mesenchymal stem cells and the PMA-pretreated mesenchymal stem cells of the Example were each seeded at a density of 1,000 cells/dish into 100-mm cell culture dishes containing […] of a culture medium [high glucose DMEM (Gibco, Cat no. 11995-065), 10% fetal bovine serum (HyClone), 1% MEM non-essential amino acids solution (100×) (Gibco, Cat no. 11140-050)] per dish and cultured for 21 days. The cell-attached dishes were washed twice with PBS, followed by fixation with 95% methanol at room temperature for about 2 min. […]

“interferon-γ [IFNγ MSC-Exo = exosomes of IFNγ-treated mesenchymal stem cells]” was tested, and the “increase in proliferation relative to non-treated mesenchymal stem cells” value [1] was “about 242%”, the “proliferation ratio relative to non-treated mesenchymal stem cells (1)” value [1] was 2.42 and the “colonies formed (each 50 or more cells)” value ([2]; 1,000 cells/dish, 21 days, non-treated 28.6) was 136 colonies. The CFU-F increase ([2]; vs non-treated) was “about 476%”.
